What all share (type): functional
In assay [1] the test system is Staphylococcus aureus. Description: Antimicrobial activity against Staphylococcus aureus ATCC 29213.
Assay [2] concerns Staphylococcus aureus. Description: Antimicrobial activity against Staphylococcus aureus harboring APH(3'/5'''')-3 enzyme.
Assay [3] relates to Staphylococcus aureus. Description: Antimicrobial activity against Staphylococcus aureus harboring ANT(4')-1 enzyme.
Assay [4] concerns Staphylococcus aureus. Description: Antimicrobial activity against Staphylococcus aureus harboring APH(2'''') and AAC(6') enzymes.
The subject of assay [5] is Staphylococcus aureus. Description: Antimicrobial activity against methicillin-resistant Staphylococcus aureus clinical isolate.
Assay [6] concerns Staphylococcus aureus. Description: Ratio of amikacin MIC50 to compound MIC50 for methicillin-resistant Staphylococcus aureus clinical isolate.
The subject of assay [7] is Staphylococcus aureus. Description: Ratio of amikacin MIC90 to compound MIC90 for methicillin-resistant Staphylococcus aureus clinical isolate.

≈ marks a conversion by molar mass, not a printed value.

For `NCC[C@H](O)C(=O)N[C@@H]1C[C@H](N)[C@@H](O[C@H]2O[C@H](CO)[C@@H](O)[C@H](O)[C@H]2N)[C@H](O[C@@H]2O[C@H](CO)[C@@H](O[C@H]3O[C@@H](CN)[C@@H](O)[C@H](O)[C@H]3N)[C@H]2O)[C@H]1O`, the minimal inhibitory concentration (MIC) was 2 µg/mL (≈ 2.79 µM) against Staphylococcus aureus [1], 32 µg/mL (≈ 44.6 µM) in the assay on Staphylococcus aureus [2], greater than 64 µg/mL against Staphylococcus aureus [3] and greater than 32 µg/mL against Staphylococcus aureus [4].
Take `NC[C@H]1CC[C@@H](N)[C@@H](O[C@H]2[C@@H](O)[C@H](O[C@@H]3[C@@H](O)[C@H](N)C[C@H](N)[C@H]3O[C@H]3O[C@H](CO)CC[C@H]3N)O[C@@H]2CO)O1`: the MIC was 2 µg/mL (≈ 3.63 µM) against Staphylococcus aureus [1], 4 µg/mL (≈ 7.25 µM) against Staphylococcus aureus [3] and greater than 32 µg/mL with Staphylococcus aureus [4].
On to `NCC[C@H](O)C(=O)N[C@@H]1C[C@H](N)[C@@H](O[C@H]2O[C@H](CO)CC[C@H]2N)[C@H](O[C@@H]2O[C@H](CO)[C@@H](O[C@H]3O[C@@H](CN)CC[C@H]3N)[C@H]2O)[C@H]1O`, for which the MIC was 1 µg/mL (≈ 1.53 µM) with Staphylococcus aureus [1], 8 µg/mL (≈ 12.3 µM) in the assay with Staphylococcus aureus [3] and 16 µg/mL (≈ 24.5 µM) in the assay on Staphylococcus aureus [4].
For the compound `NC[C@@H]1CC[C@@H](N)[C@@H](O[C@H]2[C@H](O[C@@H]3O[C@H](CO)[C@@H](O[C@H]4O[C@@H](CN)CC[C@H]4N)[C@H]3O)[C@@H](O)[C@H](N)C[C@@H]2N)O1`, the MIC was 0.5 µg/mL (≈ 0.908 µM) in the assay with Staphylococcus aureus [1], 32 µg/mL (≈ 58.1 µM) in the assay with Staphylococcus aureus [2], 0.5 µg/mL (≈ 0.908 µM) with Staphylococcus aureus [3] and greater than 64 µg/mL against Staphylococcus aureus [4].
Consider `NCC[C@H](O)C(=O)N[C@@H]1C[C@H](N)[C@@H](O[C@H]2O[C@H](CN)CC[C@H]2N)[C@H](O[C@@H]2O[C@H](CO)[C@@H](O[C@H]3O[C@@H](CN)CC[C@H]3N)[C@H]2O)[C@H]1O`, for which the minimum inhibitory concentration (MIC) with Staphylococcus aureus [1] came out at 0.5 µg/mL (≈ 0.767 µM); against Staphylococcus aureus [2] it was 1 µg/mL (≈ 1.53 µM); with Staphylococcus aureus [3], 1 µg/mL (≈ 1.53 µM); against Staphylococcus aureus [4] it was 2 µg/mL (≈ 3.07 µM). Moreover, in the assay with Staphylococcus aureus [5], the MIC50 came out at 0.25 µg/mL (≈ 0.384 µM). The compound further returned an MIC90 in the assay on Staphylococcus aureus [5] of 0.5 µg/mL (≈ 0.767 µM). Moreover, the Ratio in the assay on Staphylococcus aureus [6] and with Staphylococcus aureus [7] was greater than 64 throughout.
For the compound `NCC[C@H](O)C(=O)N[C@@H]1C[C@H](N)[C@@H](O[C@H]2O[C@H](CN)[C@@H](O)[C@H](O)[C@H]2O)[C@H](O)[C@H]1O[C@H]1O[C@H](CO)[C@@H](O)[C@H](N)[C@H]1O` [AMIKACIN], the MIC against Staphylococcus aureus [1] stood at 4 µg/mL (≈ 6.83 µM); against Staphylococcus aureus [2], 8 µg/mL (≈ 13.7 µM); in the assay on Staphylococcus aureus [3] it was 64 µg/mL (≈ 109 µM); against Staphylococcus aureus [4], 64 µg/mL (≈ 109 µM). Also, in the assay on Staphylococcus aureus [5], the MIC50 was 32 µg/mL (≈ 54.6 µM). In the assay on Staphylococcus aureus [5], this compound showed an MIC90 greater than 64 µg/mL.
For the compound `NC[C@@H]1O[C@H](O[C@H]2[C@@H](O)[C@H](O[C@@H]3[C@@H](O)[C@H](N)C[C@H](N)[C@H]3O[C@H]3O[C@H](CN)[C@@H](O)[C@H](O)[C@H]3N)O[C@@H]2CO)[C@H](N)[C@@H](O)[C@@H]1O` [FRAMYCETIN], the minimal inhibitory concentration (MIC) against Staphylococcus aureus [1] was 0.5 µg/mL (≈ 0.813 µM); with Staphylococcus aureus [2] it was greater than 64 µg/mL; in the assay on Staphylococcus aureus [3], greater than 64 µg/mL; in the assay on Staphylococcus aureus [4] it was greater than 64 µg/mL.
`CN[C@@H]1[C@@H](O)[C@@H](O[C@@H]2[C@@H](O)[C@H](O[C@H]3O[C@H]([C@@H](C)NC)CC[C@H]3N)[C@@H](N)C[C@H]2N)OC[C@]1(C)O` [GENTAMICIN C1]: the minimum inhibitory concentration (MIC) in the assay on Staphylococcus aureus [1] was 0.5 µg/mL (≈ 1.05 µM); in the assay with Staphylococcus aureus [2], 0.5 µg/mL (≈ 1.05 µM); against Staphylococcus aureus [3], 0.5 µg/mL (≈ 1.05 µM); in the assay with Staphylococcus aureus [4] it was greater than 64 µg/mL. The compound also gave an MIC50 in the assay with Staphylococcus aureus [5] greater than 32 µg/mL. In the assay with Staphylococcus aureus [5], this compound displayed an MIC90 greater than 32 µg/mL.
On to `NC[C@@H]1O[C@H](O[C@H]2[C@@H](O)[C@H](O[C@@H]3[C@@H](O)[C@H](N)C[C@H](N)[C@H]3O[C@H]3O[C@H](CO)[C@@H](O)[C@H](O)[C@H]3N)O[C@@H]2CO)[C@H](N)[C@@H](O)[C@@H]1O` [PAROMOMYCIN], for which the MIC with Staphylococcus aureus [1] is 2 µg/mL (≈ 3.25 µM); in the assay with Staphylococcus aureus [2], greater than 64 µg/mL; in the assay with Staphylococcus aureus [3], greater than 64 µg/mL; with Staphylococcus aureus [4], greater than 64 µg/mL.
For the compound `NC[C@H]1O[C@H](O[C@H]2[C@H](O[C@@H]3O[C@H](CO)[C@@H](O)[C@H]3O)[C@@H](O)[C@H](N)C[C@@H]2N)[C@H](N)[C@@H](O)[C@@H]1O` [RIBOSTAMYCIN], the minimum inhibitory concentration (MIC) was 8 µg/mL (≈ 17.6 µM) with Staphylococcus aureus [1], greater than 64 µg/mL with Staphylococcus aureus [2], greater than 64 µg/mL in the assay with Staphylococcus aureus [3] and greater than 64 µg/mL against Staphylococcus aureus [4].
With butirosin, the MIC against Staphylococcus aureus [1] was 8 µg/mL; in the assay on Staphylococcus aureus [2] it was greater than 32 µg/mL; against Staphylococcus aureus [3] it was greater than 32 µg/mL; against Staphylococcus aureus [4], greater than 32 µg/mL.
